The values below come from patent US20230416329A1, “A PEPTIDE WITH DISULFIDE BONDS AND INHIBITORY ACTIVITY AGAINST SERINE PROTEASES, DERIVED HYBRID PEPTIDES THEREOF, AND USES THEREOF” (INSTITUTE OF MATERIA MEDICA , CHINESE ACADEMY OF MEDICAL …, priority 2020, published 2023).

Structures are written as SMILES. Like-named read-outs stand apart in the source and are kept apart here. Bridge positions count the residues as written; N and C are the ends. Peptide text beside a SMILES is read from it.

The target of the experiment is T1, bovine trypsin (Bos taurus, UniProt P00760).
T1 sequence (P00760 24-246): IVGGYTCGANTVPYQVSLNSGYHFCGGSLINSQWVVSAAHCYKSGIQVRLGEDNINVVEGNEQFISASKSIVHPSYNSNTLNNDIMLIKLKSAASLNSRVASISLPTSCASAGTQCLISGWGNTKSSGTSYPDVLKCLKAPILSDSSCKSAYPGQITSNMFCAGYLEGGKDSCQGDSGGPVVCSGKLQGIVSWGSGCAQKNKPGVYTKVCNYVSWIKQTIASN
The experiment in a line: Trypsin inhibitory activity of peptides (BApNA hydrolysis, OD405; IC50, Ki, residual activity). The class given is biochemical. Conditions: for Ki: Ki=IC50/(1+S/Km), Km 0.33 mM, read-out: Ki; for IC50: trypsin 50 nM, BApNA 1.22 mM, read-out: IC50. Here is the method: The substrates N-succinyl-Ala-Ala-Pro-Phe-p-nitroaniline (AAPFpNA), Nα—Benzoyl-L-arginine-4-nitroaniline hydrochloride (BApNA) and N-succinyl-[…] (AAApNA) are used in competitive binding reaction to determine the inhibitory activities against α-chymotrypsin, bovine trypsin, and porcine pancreatic elastase, respectively. Experiments for α-chymotrypsin and bovine trypsin inhibition were measured in 20 mM CaCl2, 50 mM Tris-HCl buffer (pH 7.8), and that for porcine elastase inhibition was measured in 50 mM Tris-HCl buffer (pH 8.0). The concentration of the peptide was measured using optical density (OD) at 280 nm. The Michaelis constant (Km) of the enzyme hydrolysis substrate is calculated from the initial rate of substrate hydrolysis at 405 nm. The absorbance value of the substrate was measured at 405 nm after complete hydrolysis. All data were processed using nonlinear regression.
• (1) Added 200 μL of reaction buffer (20 mM CaCl2 and 50 mM Tris-HCl, pH 7.8) into the 96-well plate, and preheated at 37° C. for 15 min. Then added 5 μL of different concentrations of substrates (p-Nitroanilide, pNA, 0.5% in DMSO), and mixed by centrifugation at 500 rpm for 1 min. […] The experiment was performed in triplicate. The standard curve was obtained by plotting the OD405 nm value with pNA concentration. • (2) Added 190 μL of reaction buffer (20 mM CaCl2 and 50 mM Tris-HCl, pH 7.8) and 10 μL of 1 μM trypsin into the 96-well plate, and preheated at 37° C. for 15 min. Then added 5 μL of different concentrations of substrates (BApNA, 0.5% in DMSO) and mixed by centrifugation at 500 rpm for 1 min. […] The experiment was performed in triplicate. The corresponding curve was obtained by plotting the OD405 nm value with time. Divided the slope of the curve by the slope of the standard curve and the enzyme concentration to obtain the initial velocity V0 (mM/(min*mM protein). Plotted the initial velocity V0 with the concentration of substrate BApNA using Prism software, and the Michaelis constant Km value of trypsin hydrolyzing BApNA was obtained.
• (1) Added a total 190 μL of reaction buffer (20 mM CaCl2 and 50 mM Tris-HCl, pH 7.8) along with different concentrations of anti-trypsin peptides (BTs) into the pre-cooled 96-well plate, followed by preheating at 37° C., and spined down at 500 rpm for 5 min. Next added 10 μL of 1 μM trypsin, incubated at 37° C., and then spined down at 500 rpm for 10 min. Finally, added 5 μL of 50 mM BApNA, and mixed by centrifugation at 500 rpm for 1 min. The plate was incubated at 37° C. for 260 min, and the absorbance value at 405 nm was measured. The experiment was performed in triplicate. The blank control only contained the reaction buffer and the substrate as the minimum absorption value (Min OD405 nm). The negative control only contained the reaction buffer, the enzyme and the substrate as the maximum absorption value (Max OD405 nm). • (2) In the reaction system of 205 μL, the final concentrations of trypsin and BApNA were 50 nM and 1.22 mM, respectively. • (3) Data statistics
Residual activity of the enzyme (%)=(1−(Max OD405 nm−Sample OD405 nm)/(Max OD405 nm−Min OD405 nm))*100
Plotted the residual activity of the enzyme with […] to obtain the half inhibitory concentration (IC50) of BTs scaffold against trypsin. Then, substituted it into the formula Ki=IC50/(1+S/Km) (S, IC50 and Km were substrate concentration, half inhibitory concentration and Michaelis constant, respectively) to obtain the inhibition constant Ki of BTs scaffold against trypsin.

Take `CC[C@H](C)[C@@H]1NC(=O)[C@@H]2CCCN2C(=O)[C@@H]2CCCN2C(=O)[C@H]([C@@H](C)CC)NC(=O)[C@H](CO)NC(=O)[C@H](CCCCN)NC(=O)[C@H]([C@@H](C)O)NC(=O)[C@H](C)NC(=O)[C@H]([C@@H](C)O)NC(=O)CNC(=O)[C@@H](N)CSSC[C@@H](C(=O)N[C@@H](CC(N)=O)C(=O)O)NC1=O` [BT24] (H-CGTATKSIPPICN-OH; disulfide 1-12; N-terminus and C-terminus assumed): the “inhibitory activity against trypsin (in words)” value (from here on “inhibitory activity”) is recorded as “significant impact on their anti-trypsisn activities”.
One may read the Ki as a measure of affinity in units of concentration, obtained from inhibition or displacement. As a reminder, the IC50 is the midpoint of a concentration-inhibition curve. Turning to `CC[C@H](C)[C@@H]1NC(=O)[C@@H]2CCCN2C(=O)[C@@H]2CCCN2C(=O)[C@H]([C@@H](C)CC)NC(=O)[C@H](CO)NC(=O)[C@H](CCCCN)NC(=O)[C@H]([C@@H](C)O)NC(=O)[C@H](C)NC(=O)[C@H](CCCNC(=N)N)NC(=O)[C@H](CC(C)C)NC(=O)[C@@H](N)CSSC[C@@H](C(=O)N[C@@H](Cc2ccccc2)C(=O)O)NC1=O` [BT72] (H-CLRATKSIPPICF-OH; disulfide 1-12; N-terminus and C-terminus assumed), the inhibition constant Ki turned out to be 30 nM and the IC50 stood at 130 nM.
As to `CC[C@H](C)[C@@H]1NC(=O)[C@@H]2CCCN2C(=O)[C@@H]2CCCN2C(=O)[C@H]([C@@H](C)CC)NC(=O)[C@H](CO)NC(=O)[C@H](CCCCN)NC(=O)[C@H]([C@@H](C)O)NC(=O)[C@H](CO)NC(=O)[C@H](CCCNC(=N)N)NC(=O)CNC(=O)[C@@H](N)CSSC[C@@H](C(=O)N[C@@H](Cc2ccccc2)C(=O)O)NC1=O` [BT47] (H-CGRSTKSIPPICF-OH; disulfide 1-12; C-terminus assumed), the “inhibitory activity” value is listed as “good inhibitory activities against trypsin”, the Ki was 10 nM and the IC50 was determined as 50 nM. Moreover, under “listed as SEQ ID NO: 47”, the “inhibitory activity” value was “excellent trypsin inhibitory activities”. The Residual trypsin activity (peptide 0.000098 μM) was 103.0 ± 5.2%. Besides, the Residual trypsin activity (peptide 0.00098 μM) stood at 105.1 ± 3.6%. Further, where the note is “peptide 0.0098 μM”, the Residual trypsin activity is on record as 107.9 ± 5.8%. Under “peptide 0.0488 μM”, the Residual trypsin activity was found to be 57.4 ± 1.1%. For the setting “peptide 0.0780 μM”, the Residual trypsin activity worked out at 39.0 ± 3.8%. Further, the Residual trypsin activity (peptide 0.098 μM) came to 5.6 ± 0.7%. The Residual trypsin activity (peptide 0.98 μM) is reported as 0.2 ± 0.0%. Also, for the setting “peptide 9.76 μM”, the Residual trypsin activity stood at 0.0 ± 0.1%. Further, the Residual trypsin activity (peptide 97.56 μM) was 0.1 ± 0.0%.
On to `CC[C@H](C)[C@@H]1NC(=O)[C@@H]2CCCN2C(=O)[C@@H]2CCCN2C(=O)[C@H]([C@@H](C)CC)NC(=O)[C@H](CO)NC(=O)[C@H](CCCCN)NC(=O)[C@H]([C@@H](C)O)NC(=O)[C@@H](NC(=O)[C@@H](N)CCCNC(=N)N)CSSC[C@@H](C(=O)N[C@@H](Cc2ccccc2)C(=O)O)NC1=O` [BT45] (H-RCTKSIPPICF-OH; disulfide 2-10; C-terminus assumed), for which the IC50 turned out to be 30 nM. Further, the Residual trypsin activity (peptide 0.000098 μM) amounted to 99.3 ± 5.3%. Also, the Residual trypsin activity (peptide 0.00098 μM) turned out to be 104.3 ± 6.0%. For the same molecule, the Residual trypsin activity (peptide 0.0098 μM) is listed as 100.7 ± 5.0%. In addition, the Residual trypsin activity (peptide 0.02439 μM) came out at 67.4 ± 2.6%. The Residual trypsin activity (peptide 0.0390 μM) was 42.7 ± 2.9%. Further, under “peptide 0.0488 μM”, the Residual trypsin activity stood at 27.3 ± 5.5%. Besides, the Residual trypsin activity (peptide 0.07317 μM) amounted to 10.8 ± 1.6%. The Residual trypsin activity (peptide 0.098 μM) was 6.3 ± 0.4%. Also, the Residual trypsin activity (peptide 0.98 μM) is listed as 0.4 ± 0.0%. Further, the Residual trypsin activity (peptide 9.76 μM) turned out to be 0.0 ± 0.0%.
